Structures can show the parent of a compound that is named as a salt.
What was measured:
[1] = Four-week GLP repeat-dose oral toxicity study in female rats
[2] = Pharmacokinetics after single IV administration; format: in vivo, and monkeys; conditions: rats, dogs, monkeys
[3] = Four-week GLP repeat-dose oral toxicity study in female monkeys
[4] = female, rat, plasma, po, 100 mg/kg
[5] = female, monkey, plasma, po, 60 mg/kg/day

C[C@@H]1Cc2c([nH]c3ccccc23)[C@@H](c2c(F)cc(NC3CN(CCCF)C3)cc2F)N1CC(F)(F)CO [Compound B, 3-((1R,3R)-1-(2,6-difluoro-4-((1-(3-fluoropropyl)azetidin-3-yl)amino)phenyl)-3-methyl-1,3,4,9-tetrahydro-2H-pyrido[3,4-b]indol-2-yl)-2,2-difluoropropan-1-ol tartrate]
AUC(0-t) [1, 4]: 143000 ng·h/mL
Cmax [1, 4]: 6560 ng/mL
Exposure multiple (AUC) over anticipated human Phase I starting dose at which PLD was observed ([1]; rats): at least 44 fold
Exposure factor ([1]; rats, 10 mg/kg): 18 fold
PLD finding ([1]; rats, 10 mg/kg): not noted
Increase in systemic exposure with dose ([1]; rats, 28-day oral): dose proportional
half-life ([2]; rat, dog, monkey, in vivo, read-out: Terminal elimination half-life): 7 to 24 h
Clearance [2]: low to moderate
Volume of distribution [2]: large
MTD at 4 weeks ([3]; female, monkey, in vivo, po): 60 mg/kg
AUC(0-t) [3, 5]: 16200 ng·h/mL
Cmax [3, 5]: 841 ng/mL
Exposure multiple (AUC) over anticipated human Phase I starting dose at which PLD was observed ([3]; monkeys): ≥ 6 fold
Exposure factor ([3]; monkeys, 20 mg/kg): 6 fold
PLD finding ([3]; monkeys, 20 mg/kg): limited to minimal changes in the lung
Increase in systemic exposure with dose ([3]; monkeys, 28-day oral): dose proportional

Reference: patent publication US11780834B2, “Solid forms of 3-((1R,3R)-1-(2,6-difluoro-4-((1-(3-fluoropropyl)azetidin-3-yl)amino)phenyl)-3-methyl-1,3,4,9-tetrahydro-2H-pyrido[3,4-b]indol-2-yl)-2,2-difluoropropan-1-ol and processes for preparing fused tricyclic compounds comprising a substituted phenyl or pyridinyl moiety, including methods …” (Hoffmann-La Roche Inc., priority 2018, dated 2023)
